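48-hour exposure; five concentrations; linearly interpolated endpoints. Definition used: TGI = concentration required for complete inhibition of growth.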
What was measured:
Assay in all cases: NCI-60 cell line screen, 48 h
NCI-H522 lung = system: NCI-H522 lung
SN12C renal = system: SN12C renal
786-0 renal = system: 786-0 renal
U251 CNS = system: U251 CNS
CCRF-CEM leukemia = system: CCRF-CEM leukemia
HT29 colon = system: HT29 colon
RPMI-8226 leukemia = system: RPMI-8226 leukemia
KM12 colon = system: KM12 colon
MDA-N = system: MDA-N
SNB-19 CNS = system: SNB-19 CNS
BT-549 breast = system: BT-549 breast
IGROV1 ovarian = system: IGROV1 ovarian
MDA-MB-231 breast = system: MDA-MB-231 breast
HL-60(TB) leukemia = system: HL-60(TB) leukemia
UACC-62 melanoma = system: UACC-62 melanoma
SF-539 CNS = system: SF-539 CNS
MCF7 breast = system: MCF7 breast
SK-OV-3 ovarian = system: SK-OV-3 ovarian
A549 NSCLC = system: A549 NSCLC
HOP-62 NSCLC = system: HOP-62 NSCLC
K-562 leukemia = system: K-562 leukemia
SF-295 CNS = system: SF-295 CNS
DU-145 prostate = system: DU-145 prostate
OVCAR-8 ovarian = system: OVCAR-8 ovarian
T-47D breast = system: T-47D breast
MDA-MB-435 = system: MDA-MB-435
HCT-116 colon = system: HCT-116 colon
OVCAR-3 ovarian = system: OVCAR-3 ovarian
UO-31 renal = system: UO-31 renal
MOLT-4 leukemia = system: MOLT-4 leukemia
ACHN renal = system: ACHN renal
SF-268 CNS = system: SF-268 CNS
SK-MEL-5 melanoma = system: SK-MEL-5 melanoma
COLO 205 colon = system: COLO 205 colon
HOP-92 NSCLC = system: HOP-92 NSCLC
NCI-H226 lung = system: NCI-H226 lung
PC-3 prostate = system: PC-3 prostate
SR leukemia = system: SR leukemia
SNB-75 CNS = system: SNB-75 CNS
HS 578T breast = system: HS 578T breast
UACC-257 melanoma = system: UACC-257 melanoma
NCI/ADR-RES ovarian = system: NCI/ADR-RES ovarian
OVCAR-5 ovarian = system: OVCAR-5 ovarian
HCT-15 colon = system: HCT-15 colon
SW-620 colon = system: SW-620 colon
TK-10 renal = system: TK-10 renal
MALME-3M melanoma = system: MALME-3M melanoma
HCC-2998 colon = system: HCC-2998 colon
NCI-H23 lung = system: NCI-H23 lung
EKVX NSCLC = system: EKVX NSCLC
CAKI-1 renal = system: CAKI-1 renal
SK-MEL-2 melanoma = system: SK-MEL-2 melanoma
LOX IMVI melanoma = system: LOX IMVI melanoma
M14 melanoma = system: M14 melanoma
OVCAR-4 ovarian = system: OVCAR-4 ovarian

## C/C(=N/OC(=O)c1cccc2c(=O)c3ccccc3[nH]c12)[C@H]1CC[C@H]2[C@@H]3CCC4=C/C(=N/OC(=O)c5cccc6c(=O)c7ccccc7[nH]c56)CC[C@]4(C)[C@H]3CC[C@]12C
NCI-H522 lung
  TGI: 26.2 µM
SN12C renal
  TGI: 30.6 µM
786-0 renal
  TGI: 44.7 µM
U251 CNS
  TGI: 29.6 µM
CCRF-CEM leukemia
  TGI: 16.3 µM
HT29 colon
  TGI: 28.8 µM
RPMI-8226 leukemia
  TGI: 14.6 µM
KM12 colon
  TGI: 38.2 µM
MDA-N
  TGI: 30.3 µM
SNB-19 CNS
  TGI: 39.4 µM
BT-549 breast
  TGI: 34.8 µM
IGROV1 ovarian
  TGI: 37.1 µM
MDA-MB-231 breast
  TGI: 30.6 µM
HL-60(TB) leukemia
  TGI: 34 µM
UACC-62 melanoma
  TGI: 32.1 µM
SF-539 CNS
  TGI: 29.5 µM
MCF7 breast
  TGI: 26.4 µM
SK-OV-3 ovarian
  TGI: 93.2 µM
A549 NSCLC
  TGI: > 100 µM
HOP-62 NSCLC
  TGI: 51.2 µM
K-562 leukemia
  TGI: > 100 µM
SF-295 CNS
  TGI: 34.6 µM
DU-145 prostate
  TGI: 79.3 µM
OVCAR-8 ovarian
  TGI: 33.3 µM
T-47D breast
  TGI: 58.8 µM
MDA-MB-435
  TGI: 33.3 µM
HCT-116 colon
  TGI: 25 µM
OVCAR-3 ovarian
  TGI: 34.4 µM
UO-31 renal
  TGI: 28.5 µM
MOLT-4 leukemia
  TGI: 39.6 µM
ACHN renal
  TGI: 29.5 µM
SF-268 CNS
  TGI: 45.5 µM
SK-MEL-5 melanoma
  TGI: 26.4 µM
COLO 205 colon
  TGI: 30.3 µM
HOP-92 NSCLC
  TGI: 42.6 µM
NCI-H226 lung
  TGI: 52.8 µM
PC-3 prostate
  TGI: 31.5 µM
SR leukemia
  TGI: 25.3 µM
SNB-75 CNS
  TGI: 97.6 µM
HS 578T breast
  TGI: > 100 µM
UACC-257 melanoma
  TGI: 33.4 µM
NCI/ADR-RES ovarian
  TGI: 43.1 µM
OVCAR-5 ovarian
  TGI: 33.7 µM
HCT-15 colon
  TGI: 27 µM
SW-620 colon
  TGI: 27.1 µM
TK-10 renal
  TGI: 45.2 µM
MALME-3M melanoma
  TGI: 37.3 µM
HCC-2998 colon
  TGI: 26.9 µM
NCI-H23 lung
  TGI: 29.9 µM
EKVX NSCLC
  TGI: 71.3 µM
CAKI-1 renal
  TGI: 47.2 µM
SK-MEL-2 melanoma
  TGI: 32.8 µM
LOX IMVI melanoma
  TGI: 26.7 µM
M14 melanoma
  TGI: 29.7 µM
OVCAR-4 ovarian
  TGI: > 100 µM

Source: PubChem BioAssay (NCI)
